Results reported in EP4501942A1, “PEPTIDOMIMETICS WITH ANTIVIRAL ACTIVITY” (priority 2023, dated 2025).
Like-named read-outs stand apart in the source and are kept apart here.

What was measured:
[1] = test system: GFP-expressing recombinant vesicular stomatitis virus (VSV-GFP); experiment: microbe, parasite or virus in culture; type: cell-based; conditions: A549-ACE2, 16 h
in vitro [2] = experiment: in vitro
in vitro [3] = conditions: human
[4] = Cytotoxicity MTT assay in uninfected A549-ACE2 cells; type: cell-based; conditions: human
Experimental: To evaluate the cytotoxicity profile of the compounds MTT assays were performed in A549-ACE2 cells. Uninfected cells were incubated with a range of compound concentrations (from 100 to 1 µM) for forty-eight hours, time at which the MTT substrate [3-(4,5-dimethylthiazol-2-yl)-2,5-diphenyltetrazolium bromide] was added and the formation of formazan precipitates was evaluated two hours later, using a colorimetric readout. Vehicle-treated (DMSO) cells were used as reference (100 %).

SARS-CoV-2 M^pro protein = SARS-CoV-2 M^pro protein (Severe acute respiratory syndrome coronavirus 2, UniProt P0DTD1); experiment: biochemical; conditions: for IC50: isolated SARS-CoV-2 M^pro, three separate experiments in duplicate, read-out: IC50, mean±SD
SARS-CoV-2 = experiment: microbe, parasite or virus in culture; type: cell-based; conditions: Severe acute respiratory syndrome coronavirus 2, SARS-CoV-2, A549-ACE2 cells, MOI 0.005, 48 h; for EC50: read-out: EC50; for EC90: read-out: EC90

Structure (SMILES) | EC50 [1] [µM] | EC90 [1] [µM] | CC50 (in vitro [2]) [µM] | CC50 (in vitro [3]) [µM] | CC50 at 48 h [4] [µM] | IC50 (SARS-CoV-2 M^pro protein) [µM] | EC50 (SARS-CoV-2) [µM] | EC90 (SARS-CoV-2) [µM] | inhibition at 10 µM (SARS-CoV-2 M^pro protein; read-out: % of inhibition at 10 µM) [%]
C[C@@H]1CN(C(=O)[C@@H](NC(=O)OC(C)(C)C)C(C)(C)C)[C@]1(Cc1ccccc1)C(=O)N[C@H](C=O)C[C@@H]1CCNC1=O [Example 29, Boc-L-Tbg-(αS,β'R')-Azf-L-Ala(3S-2-oxopyrrolidin-3-yl)-H] | > 50 | > 50 | > 50 | > 50 | > 100 | 0.027 ± 0.006 | 1 | 2 | 
CC(C)[C@H](NC(=O)OC(C)(C)C)C(=O)N1C[C@@H](C)[C@@]1(CC1CCCCC1)C(=O)N[C@H](C#N)C[C@@H]1CCNC1=O [Example 36] | > 50 | > 50 | > 50 | > 50 | > 100 | 0.19 ± 0.01 | 2 | 4 | 
CC(C)[C@H](NC(=O)OC(C)(C)C)C(=O)N1C[C@@H](C)[C@@]1(Cc1ccccc1)C(=O)N[C@H](C#N)C[C@@H]1CCNC1=O [Example 6] | > 50 | > 50 | > 50 | > 50 | > 100 | 0.07 ± 0.01 | 1 | 3 | 
C[C@@H]1CN(C(=O)[C@@H](NC(=O)OC(C)(C)C)C(C)(C)C)[C@]1(Cc1ccccc1)C(=O)N[C@H](C#N)C[C@@H]1CCNC1=O [Example 14] | > 50 | > 50 | > 50 | > 50 | > 100 | 0.3 ± 0.03 | 1 | 3 | 
CCCC[C@@H](C#N)NC(=O)[C@]1(CC(C)C)[C@H](C)CN1C(=O)[C@@H](NC(=O)NC(C)(C)C)C(C)(C)C [Example 25, ^tBuNHCO-L-Tbg-(αS,β'R)-Azl-NH-[(1S)-1-cyano]pentane] | > 50 | > 50 | > 50 | > 50 |  |  |  |  | 0
